Laboratory results reported in PMC10880924, “Small molecule WDR5 inhibitors down-regulate lncRNA expression” (RSC Medicinal Chemistry, 2024).
Read-outs that look alike come from different tables or passages of the source. Bridge positions count the residues as written; N and C are the ends. Square brackets hold non-standard residues; d marks the D form. Peptide text beside a SMILES is read from it. Dab = NCC[C@H](N)C(=O)O

What was measured:
WDR5^WT (WBM site) = WDR5^WT (WBM site) (Homo sapiens, UniProt P61964)
[1] = tested on: FOXD3-AS1 expression in MDA-MB-231 cells; settings: for FOXD3-AS1 fold change: mean ± SD
[2] = tested on: HOTTIP expression in MDA-MB-231 cells; settings: for HOTTIP fold change: mean ± SD
[3] = tested on: TGF-β1 expression in MDA-MB-231 cells; settings: 3 d, vs blank = 1.000, mean ± SD
WDR5^WT (WIN site) = WDR5^WT (WIN site) (Homo sapiens, UniProt P61964); settings: for inhibition at the WIN site: competitive FP, tracer 1F
[4] = MDA-MB-231, three days, 1/5/10 μM tested
[5] = 1 µM, 3 d, exp 8 (individual bioreplicate), vs blank = 1.000
[6] = 1 µM, 3 d, exp 9 (individual bioreplicate), vs blank = 1.000
[7] = 5 µM, 3 d, exp 7 (individual bioreplicate), vs blank = 1.000
[8] = 5 µM, 3 d, exp 8 (individual bioreplicate), vs blank = 1.000
[9] = 5 µM, 3 d, exp 9 (individual bioreplicate), vs blank = 1.000
[10] = 10 µM, 1 d, Exp. 1 (individual bioreplicate), vs blank 0.1% DMSO = 1.000
[11] = 10 µM, 1 d, Exp. 2 (individual bioreplicate), vs blank 0.1% DMSO = 1.000
[12] = 10 µM, 1 d, Exp. 3 (individual bioreplicate), vs blank 0.1% DMSO = 1.000
[13] = 10 µM, 1 d, Exp. 4 (individual bioreplicate), vs blank 0.1% DMSO = 1.000
[14] = 10 µM, 1 d, Exp. 5 (individual bioreplicate), vs blank 0.1% DMSO = 1.000
[15] = 10 µM, 1 d, Exp. 6 (individual bioreplicate), vs blank 0.1% DMSO = 1.000
[16] = 10 µM, 3 d, Exp. 7 (individual bioreplicate), vs blank 0.1% DMSO = 1.000
[17] = 10 µM, 3 d, Exp. 8 (individual bioreplicate), vs blank 0.1% DMSO = 1.000
[18] = 10 µM, 3 d, Exp. 9 (individual bioreplicate), vs blank 0.1% DMSO = 1.000
[19] = 10 µM, 3 d, Exp. 10 (individual bioreplicate), vs blank 0.1% DMSO = 1.000
[20] = 10 µM, 3 d, Exp. 11 (individual bioreplicate), vs blank 0.1% DMSO = 1.000
[21] = 10 µM, 3 d, Exp. 12 (individual bioreplicate), vs blank 0.1% DMSO = 1.000

CC(=O)N[C@@H](C)C(=O)N[C@@H](CCCNC(=N)N)C(=O)N[C@H](C(=O)N[C@@H](CCC(=O)O)C(=O)N[C@H](C(=O)N[C@@H](Cc1c[nH]cn1)C(=O)N[C@@H](CC(C)C)C(=O)N[C@@H](CCCNC(=N)N)C(=O)N[C@@H](CCCCN)C(=O)N[C@@H](CO)C(N)=O)C(C)C)[C@@H](C)O [1NH2]
inhibition at the WBM site (WDR5^WT (WBM site); competitive FP, tracer 2F): does not inhibit the WBM-site

CN1CCN(c2ccc(-c3cccc(CN4CCOCC4)c3)cc2NC(=O)c2c[nH]c(=O)cc2C(F)(F)F)CC1 [OICR-9429]
concentration of maximum effect on FOXD3-AS1 expression [1, 4]: 5 µM
concentration of maximum effect on HOTTIP expression [2, 4]: 5 µM

CNC(=O)c1cc(C2(C#N)CCC2)cc(NS(=O)(=O)c2cc(Br)cc(Cl)c2O)c1O [7k, 3-((5-Bromo-3-chloro-2-hydroxyphenyl)sulfonamido)-5-(1cyanocyclobutyl)-2-hydroxy-N-methylbenzamide]
FOXD3-AS1 fold change [1, 5]: 0.984 ± 0.128
FOXD3-AS1 fold change [1, 6]: 0.971 ± 0.104
FOXD3-AS1 fold change [1, 7]: 0.753 ± 0.078
FOXD3-AS1 fold change [1, 8]: 1.178 ± 0.131
FOXD3-AS1 fold change [1, 9]: 1.020 ± 0.085
FOXD3-AS1 fold change [1, 10]: 0.913 ± 0.098
FOXD3-AS1 fold change [1, 11]: 1.000 ± 0.050
FOXD3-AS1 fold change [1, 12]: 0.842 ± 0.122
FOXD3-AS1 fold change [1, 13]: 0.826 ± 0.055
FOXD3-AS1 fold change [1, 14]: 1.053 ± 0.047
FOXD3-AS1 fold change [1, 15]: 0.901 ± 0.056
FOXD3-AS1 fold change [1, 16]: 0.756 ± 0.076
FOXD3-AS1 fold change [1, 17]: 1.075 ± 0.124
FOXD3-AS1 fold change [1, 18]: 0.847 ± 0.077
FOXD3-AS1 fold change [1, 19]: 0.798 ± 0.040
FOXD3-AS1 fold change [1, 20]: 0.944 ± 0.033
FOXD3-AS1 fold change [1, 21]: 0.650 ± 0.065
TGF-β1 fold change ([3]; 1 µM, exp 7 (individual bioreplicate)): 0.972 ± 0.048
TGF-β1 fold change ([3]; 1 µM, exp 8 (individual bioreplicate)): 1.020 ± 0.062
TGF-β1 fold change ([3]; 1 µM, exp 9 (individual bioreplicate)): 1.060 ± 0.127
TGF-β1 fold change ([3]; 5 µM, exp 7 (individual bioreplicate)): 0.916 ± 0.056
TGF-β1 fold change ([3]; 5 µM, exp 8 (individual bioreplicate)): 1.009 ± 0.079
TGF-β1 fold change ([3]; 5 µM, exp 9 (individual bioreplicate)): 1.003 ± 0.120
TGF-β1 fold change ([3]; 10 µM, exp 7 (individual bioreplicate)): 0.972 ± 0.055
TGF-β1 fold change ([3]; 10 µM, exp 8 (individual bioreplicate)): 0.987 ± 0.059
TGF-β1 fold change ([3]; 10 µM, exp 9 (individual bioreplicate)): 0.942 ± 0.101
inhibition at the WIN site (WDR5^WT (WIN site)): did not observe any crossover inhibition
Ki (WDR5^WT (WIN site); read-out: Ki (tracer 1F), WIN site, WDR5^WT 2 nM, 1F 0.6 nM, HEPES pH 7.0, 0.01% Triton-X, 1% DMSO, mean ± SD of four replicates (two biological x two technical), converted from IC50): > 40 µM
Ki (WDR5^WT (WBM site); read-out: Ki (tracer 2F), WBM site, WDR5^WT 500 nM, 2F 5.0 nM, HEPES pH 7.0, 0.01% Triton-X, 1% DMSO, mean ± SD of four replicates (two biological x two technical), converted from IC50): 107 ± 20 nM
HOTTIP fold change ([2]; 1 µM, 3 d, exp 7 (individual bioreplicate), vs blank = 1.000): 0.923 ± 0.164
HOTTIP fold change [2, 5]: 0.821 ± 0.069
HOTTIP fold change [2, 6]: 1.189 ± 0.152
HOTTIP fold change [2, 7]: 0.643 ± 0.184
HOTTIP fold change [2, 8]: 0.877 ± 0.062
HOTTIP fold change [2, 9]: 0.915 ± 0.153
HOTTIP fold change [2, 10]: 0.963 ± 0.284
HOTTIP fold change [2, 11]: 1.521 ± 0.182
HOTTIP fold change [2, 12]: 1.129 ± 0.176
HOTTIP fold change [2, 13]: 0.970 ± 0.197
HOTTIP fold change [2, 14]: 0.988 ± 0.141
HOTTIP fold change [2, 15]: 0.618 ± 0.071
HOTTIP fold change [2, 16]: 0.464 ± 0.082
HOTTIP fold change [2, 17]: 0.570 ± 0.035
HOTTIP fold change [2, 18]: 0.733 ± 0.095
HOTTIP fold change [2, 19]: 0.646 ± 0.116
HOTTIP fold change [2, 20]: 1.031 ± 0.214
HOTTIP fold change [2, 21]: 0.548 ± 0.132
concentration required for significant changes of HOTTIP expression [2, 4]: 10 µM

CC[C@H](C)[C@H](NC(=O)[C@H](CCC(=O)O)NC(=O)[C@H](CCC(=O)O)NC(=O)[C@H](CCC(=O)O)NC(=O)[C@H](CC(=O)O)NC(C)=O)C(=O)N[C@H]1CC(=O)NCC[C@@H](C(=O)N[C@H](C(=O)N[C@@H](CCC(=O)O)C(N)=O)C(C)C)NC(=O)[C@H](C(C)C)NC(=O)[C@H](C(C)C)NC1=O [2Ac] (Ac-DEEEIDVV[Dab]VE-NH2; lactam 6-9)
inhibition at the WIN site (WDR5^WT (WIN site)): vice versa
